In article PMC6572854, “Convergent allostery in ribonucleotide reductase” (Nature Communications, 2019):
Where a chain is given by its changes, count along the chain named. Blank lines part the entries; values can stand above or below the molecule they belong to.

How the values were obtained:
[1] = molecular target: T1, NrdE (holo-NrdE; class Ib RNR alpha subunit) (Bacillus subtilis, UniProt P50620); assay: crystal structure ([…] Å); format: binding; settings: allosteric; I-site, displacing dAMP; presumed hydrolysis product of added ATP; with TTP and GDP or CDP
T1 construct: tagless full-length (C-terminal residue V700), His6-SUMO tag cleaved, E. coli BL21(DE3); holo form co-purifies with dAMP; monomer, I-dimer, S-dimer or filament depending on nucleotides
T1 sequence (P50620 whole entry): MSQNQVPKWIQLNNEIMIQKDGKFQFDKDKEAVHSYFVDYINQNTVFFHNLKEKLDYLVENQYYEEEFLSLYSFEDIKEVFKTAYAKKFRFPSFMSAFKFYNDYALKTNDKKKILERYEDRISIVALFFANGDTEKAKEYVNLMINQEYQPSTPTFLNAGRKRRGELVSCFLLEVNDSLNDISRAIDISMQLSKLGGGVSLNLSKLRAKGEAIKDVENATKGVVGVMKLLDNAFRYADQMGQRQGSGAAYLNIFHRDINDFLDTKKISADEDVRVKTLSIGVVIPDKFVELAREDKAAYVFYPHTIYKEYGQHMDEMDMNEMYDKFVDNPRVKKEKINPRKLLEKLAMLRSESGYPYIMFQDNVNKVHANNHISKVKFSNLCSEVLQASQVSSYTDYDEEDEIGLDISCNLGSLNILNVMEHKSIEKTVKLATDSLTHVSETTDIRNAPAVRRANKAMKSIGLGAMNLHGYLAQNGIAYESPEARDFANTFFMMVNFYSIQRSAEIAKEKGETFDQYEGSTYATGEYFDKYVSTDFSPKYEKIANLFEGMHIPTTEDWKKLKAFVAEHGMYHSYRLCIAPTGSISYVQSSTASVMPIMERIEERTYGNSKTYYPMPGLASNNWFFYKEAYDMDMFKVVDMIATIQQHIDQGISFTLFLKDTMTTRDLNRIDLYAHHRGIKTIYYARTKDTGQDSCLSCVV

[2] = molecular target: T1, NrdE (holo-NrdE; class Ib RNR alpha subunit); assay: crystal structure ([…] Å) and SAXS titration; format: binding; settings: allosteric; M-site; 5 mM Mg-ATP with TTP and GDP; may have displaced GDP
[3] = molecular target: T2, NrdEF (holo-NrdE + Mn-reconstituted NrdF) (Bacillus subtilis, UniProt P50620); assay: cryo-EM structure ([…] Å); format: binding; settings: allosteric; S-site and I-site of NrdE in NrdEF filament; 100 µM dATP, 1 mM CDP, 15 mM MgCl2, pH 7.6
T2 construct: tagless NrdE (SUMO tag cleaved) plus His6-tagged NrdF, E. coli host; alpha2beta2 asymmetric unit of filament; both nucleotide sites lie on NrdE; NrdF modelled only as C-terminal polyalanine peptide; with Ribonucleoside-diphosphate reductase subunit beta NrdF
T2 sequence (P50620 whole entry, one chain of several): as the sequence (P50620 whole entry) above

[4] = molecular target: T1, NrdE (holo-NrdE; class Ib RNR alpha subunit); assay: cryo-EM structure ([…] Å) and SAXS titration; format: binding; settings: allosteric; S-site and I-site; 100 µM dATP, 1 mM CDP, 15 mM MgCl2, pH 7.6; dATP displaces co-purified dAMP at I-site
[5] = molecular target: T3, Bacillus subtilis NrdE C382S, tagless (Bacillus subtilis, UniProt P50620 1-700, C382S); assay: SAXS titration; 0-20 µM Fe-NrdF titrated to 4 µM C382S holo-NrdE, 50 µM dATP, 1 mM CDP, assay buffer with 5% glycerol, 4 °C; singular value decomposition; settings: both partners purified
T3 construct: NrdE, α subunit of the class Ib ribonucleotide reductase of Bacillus subtilis, with the catalytic cysteine C382 changed to serine; Used in all SAXS experiments where NrdF was added, to prevent changes in nucleotide concentrations (D1:p2); also called C382S holo-NrdE; C382S NrdE
T3 sequence: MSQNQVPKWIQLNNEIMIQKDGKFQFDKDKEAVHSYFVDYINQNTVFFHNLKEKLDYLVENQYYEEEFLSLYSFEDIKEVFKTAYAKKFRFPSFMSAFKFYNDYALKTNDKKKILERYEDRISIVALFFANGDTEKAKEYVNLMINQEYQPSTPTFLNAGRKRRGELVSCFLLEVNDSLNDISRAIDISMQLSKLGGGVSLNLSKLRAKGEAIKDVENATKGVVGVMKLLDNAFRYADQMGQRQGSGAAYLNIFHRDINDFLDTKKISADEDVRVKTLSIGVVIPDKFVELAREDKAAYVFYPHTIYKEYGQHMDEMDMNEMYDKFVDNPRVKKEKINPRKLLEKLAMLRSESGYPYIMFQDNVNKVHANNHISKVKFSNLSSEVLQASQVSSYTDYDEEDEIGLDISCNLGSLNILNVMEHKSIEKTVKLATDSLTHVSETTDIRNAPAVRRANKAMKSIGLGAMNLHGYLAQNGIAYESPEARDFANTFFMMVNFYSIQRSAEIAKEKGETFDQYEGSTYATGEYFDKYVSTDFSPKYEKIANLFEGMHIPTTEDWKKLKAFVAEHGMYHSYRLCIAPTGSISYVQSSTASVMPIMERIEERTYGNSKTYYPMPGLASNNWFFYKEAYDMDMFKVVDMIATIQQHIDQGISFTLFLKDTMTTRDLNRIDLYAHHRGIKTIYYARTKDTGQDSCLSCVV

[6] = molecular target: the molecule itself; assay: SEC-SAXS; stoichiometric mixture of C382S holo-NrdE and NrdF with 1 mM ATP and 250 µM TTP, 4 °C
[7] = molecular target: T4, Bacillus subtilis class Ib ribonucleotide reductase alpha subunit NrdE, wild type, tagless (Bacillus subtilis, UniProt P50620 1-700); assay: cryo-EM structure; 20 µM holo-NrdE with 20 or 40 µM Mn-reconstituted NrdF, 100 µM dATP, 1 mM CDP, diluted four-fold; NrdEF filament, 4.7 Å map; settings: both partners purified
T4 construct: NrdE, alpha subunit of the class Ib ribonucleotide reductase of Bacillus subtilis; tagless after SUMO protease; also called apo-NrdE (dAMP-free)
T4 sequence: T3 sequence with S382C

[8] = molecular target: the molecule itself; assay: SEC-SAXS; 80 µM wt holo-NrdE loaded, 250 µM TTP, 1 mM ATP, assay buffer with 1% glycerol, 4 °C; fit of the dataset to I-dimer, S-dimer and monomer in OLIGOMER

stoichiometry N [5]: ~1 NrdF per NrdE (subunits)
B1: Bacillus subtilis class Ib ribonucleotide reductase NrdF (β subunit), His6-tagged, metal-reconstituted (enzyme)
chain: MTKIYDAANWSKHEDDFTQMFYNQNVKQFWLPEEIALNGDLLTWKYLGKNEQDTYMKVLAGLTLLDTEQGNTGMPIVAEHVDGHQRKAVLNFMAMMENAVHAKSYSNIFMTLAPTETINEVFEWVKQNKYLQKKAQMIVGLYKAIQKDDEISLFKAMVASVYLESFLFYSGFYYPLYFYGQGKLMQSGEIINLILRDEAIHGVYVGLLAQEIYNKQTEEKKAELREFAIDLLNQLYENELEYTEDLYDQVGLSHDVKKFIRYNANKALMNLGFDPYFEEEDINPIVLNGLNTKTKSHDFFSMKGNGYKKATVEPLKDDDFYFEDEKEQI
notes: NrdF, β subunit of the class Ib ribonucleotide reductase of Bacillus subtilis; Fe-NrdF was used in the subunit titration, Mn-NrdF in SEC-SAXS and cryo-EM; also called Fe-NrdF; Mn-NrdF; source: produced in a similar manner as NrdE but without the tag cleavage steps, purified; reconstituted with Fe(III)2-Y• or Mn(III)2-Y•, MonoQ

binding result [7]: binds
B2: Bacillus subtilis class Ib ribonucleotide reductase beta subunit NrdF, His6-tagged, metal-reconstituted (enzyme)
chain: B1 chain
notes: NrdF, beta subunit of the class Ib ribonucleotide reductase of Bacillus subtilis; Fe-NrdF in the SAXS subunit titration, Mn-reconstituted NrdF in cryo-EM; also called Fe-NrdF
binding result [6]: binds

The next lines start with the molecule.

Molecule: Nc1ncnc2c1ncn2[C@@H]1O[C@H](COP(=O)(O)OP(=O)(O)O)[C@@H](O)[C@H]1O [ADP]
crystal structure (2.50, 2.55, 2.95 Å) [1]: Electron density at the I-site showed strong evidence for an ADP ligand displacing dAMP

Molecule: Nc1ncnc2c1ncn2[C@@H]1O[C@H](COP(=O)(O)OP(=O)(O)OP(=O)(O)O)[C@@H](O)[C@H]1O [ATP]
crystal structure (2.50, 2.55 Å) and SAXS titration [2]: we also observed nearby electron density for an ATP ligand with the adenine ring positioned

Molecule: Nc1ncnc2c1ncn2[C@H]1C[C@H](O)[C@@H](COP(=O)(O)OP(=O)(O)OP(=O)(O)O)O1 [dATP]
cryo-EM structure (4.7 Å) [3]: a dATP molecule at each S- and I-site
cryo-EM structure (6 Å) and SAXS titration [4]: For both filaments, excess density at the S-site was modeled as dATP

B3: Bacillus subtilis class Ib ribonucleotide reductase NrdE (α subunit), wild type, tagless (enzyme)
chain: T3 sequence with S382C
notes: NrdE, α subunit of the class Ib ribonucleotide reductase of Bacillus subtilis; holo-NrdE carries the co-purified dAMP ligand, apo-NrdE is nucleotide-free; same polypeptide; also called wt apo-NrdE (dAMP-free)
stoichiometry N [8]: 2
